Laboratory results reported in patent US12459930B2, “Compounds for the inhibition of unregulated cell growth” (GODAVARI BIOREFINERIES LIMITED, priority 2018, dated 2025).

Experiments:
[1] = tested on: PC3 spheres (cancer stem cells); test: In vitro sphere-forming assay (cancer stem cells), PC3 in Prostosphere media; conditions: for 3D sphere count of PC3 in Prostosphere media: 2000 cells/well, n = 6 ± S.D; for viability at 0.025 µM: read-out: % Viability of spheres (PC3), 0.025 uM; for viability at 0.025 µM / viability at 0.25 µM / viability at 2.5 µM / viability at 25 µM / viability at 250 µM: GCD = 100% viability; for viability at 0.25 µM: read-out: % Viability of spheres (PC3), 0.25 uM; for viability at 2.5 µM: read-out: % Viability of spheres (PC3), 2.5 uM; for viability at 25 µM: read-out: % Viability of spheres (PC3), 25 uM; for viability at 250 µM: read-out: % Viability of spheres (PC3), 250 uM
Source text: In Vitro Sphere-forming Assay: Sphere assay measures the ability of cancer stem cells (CSCs) to form spheres in specially designed serum-free medium.
Materials and Reagents:50×B27 Supplement (Life Technologies, Invitrogen, Catlog No.: 17502-044), Fibroblast Growth Factor (FGF) (Sigma-Aldrich, Catlog No.: F029125), Epidermal Growth Factor (EGF) (Sigma-Aldrich, Catlog No.: E9644), Insulin (Sigma, Catlog No.: 19278), Dulbecco's Modified Eagle Medium/F12 (HiMedia Catlog No.: AL139-6), Dulbecco's Phosphate Buffered Saline (HiMedia Catlog No.: TL1006), Trypan Blue (TC193), Prostate Epithelial Media (LONZA, Catlog No.: CC-3166) MEGM (LONZA, Catlog No.: CC-3051), Heparin (Sigma, Catlog No.: H3393), Penstrep (HiMedia, Catlog No.: A002)
Prostosphere Media Preparation (For 100 mL): 1 g methyl cellulose autoclaved with magnetic stirrer, 100 mL plain media (Prostate Epithelial Basal Medium) was added and dissolved, under magnetic stirring. After complete dissolution, Insulin—40 μL, B27—2 mL, EGF—80 μL, Penstrep—1 ml was added.
Procedure—The cells were trypsinised and made into single-cell suspension by passing through cell strainers (100 μl and 40 μl, respectively), The cells were diluted at a concentration of 2000 cells/100 μL and suspended in either Mammosphere (for breast cell lines) or Prostosphere (for prostate cell lines). 100 μL of this suspension was added into each well of 96-well suspension plates and incubated at 37 C, 50 CO2 for 24 hrs. Appropriate concentrations of the drugs (2 L) were added into respective wells with 100 μL of stem cell culture medium. Plates were incubated at 37° C., 50% CO2 for 72 hrs. After incubation, 2.5 μL of the respective drug concentration and 50 μL of stem cell culture medium were added into each well and the plates were further incubated at 37° C., 500 CO2 for 72 hrs. 3 μL of the respective drug concentration was added with 50 μL of stem cell culture medium again after incubation and plates were reincubated for 72 hrs at 37° C., 500 CO2. Number of primary spheres formed for each concentration were counted. The spheres were converted to 0 viability of spheres compared to untreated (Growth Control with DMSO, GCD).

[2] = tested on: PC3 prostate cancer cell line; test: Soft agar colony-formation assay, PC3; type: cell-based; conditions: 1 week, Alamar Blue, read-out: IC50 in micromolar, PC3 (Soft Agar Assay)
Method: (§1) The Soft Agar Colony-formation Assay is an anchorage-independent growth assay in soft agar, which is one of the most stringent assays for detecting malignant transformation of cells. For this assay, malignant cells are cultured with appropriate controls in soft agar medium for 1-2 weeks. Following this incubation period, formed colonies can either be analyzed morphologically using cell stain and quantifying the number of colonies formed.
(§2) Briefly, for Soft Agar Assay a mixture of 50 ul of 2× medium (taken appropriately as per cell line) and 50 ul of 1.2% Bacto Agar were plated on to each well of 96 well micro titer assay plate. 10 ul of cells (of specific plating efficiency pre standardized for respective cell line) were mixed with 20 ul of 2× medium and 30 ul of 0.8% of Bacto Agar and 1.6 ul of drug (of appropriate concentration) in a vial and transferred to the solidified pre layers of the assay plates. The cells were then allowed to grow and form colonies at 37° C. and 5% C02 for 1 week. An intermittent feeding with 50 ul of appropriate 2× medium was performed after 3 days of experimental set up. 16 ul of Alamar Blue (1.5 mg/ml) was then added to all the wells to quantify the developed colonies. The plates were incubated for 24 hrs at 37° C. Absorbance was then measured at 630 nm. XY graph of log Percent viability was then plotted against log drug concentration.
(§3) Following plating efficiencies were standardized for Soft Agar Assay: […]

[3] = tested on: MDAMB231 spheres (cancer stem cells); test: In vitro sphere-forming assay (cancer stem cells), MDAMB231 in Mammosphere media; conditions: for 3D sphere count of MDAMB231 in Mammosphere media: 2000 cells/well, n = 6 ± S.D; for viability at 0.025 µM / viability at 0.25 µM / viability at 2.5 µM / viability at 25 µM / viability at 250 µM: Homo sapiens, MDA-MB-231, read-out: % Viability of spheres (MDAMB231)
[4] = tested on: MDAMB231 breast cancer cell line; test: Soft agar colony-formation assay, MDAMB231; type: cell-based; conditions: 1 week, Alamar Blue, read-out: IC50 in micromolar, MDAMB231 (Soft Agar Assay)
Method: as §1, §2, §3

[5] = tested on: MDAMB231 breast cancer cell line; test: In vitro antiproliferative assay (MTT assay), MDAMB231; type: cell-based; conditions: 48 hrs drug incubation, read-out: IC50 in micromolar, MDAMB231 (MTT assay)
Method: (§4) MTT assay is a simple and sensitive assay where, metabolic reducing activity of the cells is measured. The increase of this activity in time is taken as a parameter of cell growth. If treatment with a drug impairs this increase, the action is a consequence of growth inhibition, cell killing or both. […] All cell lines were cultured in a 37° C. incubator with a 5% CO2 environment. Compounds were dissolved in DMSO with a concentration of 0.1M (stock solution). Cells were seeded into 96-well plates at suitable plating efficiency.
(§5) Following plating efficiencies were standardized for MTT assay:
(§6) In the MTT procedure, the cells were plated in 96 well plates as per predetermined plating efficiency (Table1). The plates were then incubated for 24 hrs in 5% CO2 atmosphere at 37° C. Appropriate concentrations of the drugs were then added to the plate and further incubation was carried out for 48 hrs (in 5% CO2 atmosphere at 37° C.). The assay plate was then centrifuged twice at 3000 rpm for 3 mins and supernatant was then discarded. 100 ul of MTT solution (0.5 mg/ml) was then added to each well of the plate and it was further incubated for 4 hrs (in 5% CO2 atmosphere at 37° C.) Following 4 hr incubation, the plate was then centrifuged twice, and supernatant was aspirated off very carefully. 200 ul of DMSO was then added to each well to solubilize. MTT crystals and mixed well by shaking the plate. XY graph of log percent viability was then plotted against log drug concentration.

[6] = tested on: PC3 prostate cancer cell line; test: In vitro antiproliferative assay (MTT assay), PC3; type: cell-based; conditions: 48 h, 48 hrs drug incubation, read-out: IC50 in micromolar, PC3 (MTT assay)
Method: as §4, §5, §6

[7] = tested on: DU145 prostate cancer cell line; test: In vitro antiproliferative assay (MTT assay), DU145; type: cell-based; conditions: 48 hrs drug incubation, read-out: IC50 in micromolar, DU145 (MTT assay)
Method: as §4, §5, §6

Structure (SMILES)	3D sphere count of PC3 in Prostosphere media ([1]; 0.025 uM)	3D sphere count of PC3 in Prostosphere media ([1]; 0.25 uM)	3D sphere count of PC3 in Prostosphere media ([1]; 2.5 uM)	3D sphere count of PC3 in Prostosphere media ([1]; 25 uM)	3D sphere count of PC3 in Prostosphere media ([1]; 250 uM)	viability at 0.025 µM [1] [%]	viability at 0.25 µM [1] [%]	viability at 2.5 µM [1] [%]	viability at 25 µM [1] [%]	viability at 250 µM [1] [%]	3D sphere count of MDAMB231 in Mammosphere media ([3]; 0.025 uM)	3D sphere count of MDAMB231 in Mammosphere media ([3]; 0.25 uM)	3D sphere count of MDAMB231 in Mammosphere media ([3]; 2.5 uM)	3D sphere count of MDAMB231 in Mammosphere media ([3]; 25 uM)	3D sphere count of MDAMB231 in Mammosphere media ([3]; 250 uM)	viability at 0.025 µM [3] [%]	viability at 0.25 µM [3] [%]	viability at 2.5 µM [3] [%]	viability at 25 µM [3] [%]	viability at 250 µM [3] [%]	other results
CCOC(=O)N1CCN(CCCCCCOc2c3c(c(-c4ccc5c(c4)OCO5)c4cc(OC)c(OC)cc24)C(=O)OC3)CC1 [Formula III, ethyl 4-(6-(9-(benzo[d][1,3]dioxol-5-yl)-1,3-dihydro-6,7-dimethoxy-1-oxonaphtho[2,3-c]furan-4-yloxy)hexyl)piperazine-1-carboxylate]	49(±3)	38(±4)	29(±4)	23(±3)	0(±0)	63	49	37	29	0	41(±2)	35(±3)	30(±4)	17(±4)	0(±0)	53	45	39	22	0	IC50 [2]: 4.84 µM; IC50 [4]: 2.53 µM; IC50 [5]: 6.68 µM; IC50 [6]: 2.36 µM; IC50 [7]: 5.41 µM
c1ccc2c(-c3ccc4c(c3)OCO4)ccc(OCCCCCCN3CCOCC3)c2c1 [Formula IV, 4-(6-(1-(benzo[d][1,3]dioxol-5-yl)naphthalen-4-yloxy)hexyl)morpholine]	44(±3)	35(±3)	32(±3)	22(±3)	0(±0)	59	47	43	29	0	40(±2)	35(±2)	25(±2)	11(±2)	0(±0)	50	44	31	13	0	IC50 ([2]; 168 h): 7.5 µM; IC50 ([4]; Homo sapiens, MDA-MB-231, 168 h): 2.59 µM; IC50 [5]: 3.86 µM; IC50 [6]: 3.79 µM; IC50 [7]: 3.16 µM
